Experimental data reported in patent US8884022B2, “Inhibition of bacterial biofilms with aryl carbamates” (North Carolina State University, priority 2010, dated 2014).

Assays:
MRSA = test: Biofilm inhibition, crystal violet assay; assay type: cell-based, methicillin-resistant S. aureus; details: for biofilm inhibition activity (in words) / inhibition at 200 µM / IC50: MRSA; for inhibition at 200 µM / IC50: Staphylococcus aureus; for inhibition at 200 µM: read-out: % Inhibition of biofilm formation; for IC50: concentration that inhibits 50% of biofilm formation
Protocol: (§1) Procedure to Determine the Inhibitory Effect of Test Compounds.
(§2) Inhibition assays were performed by taking an overnight culture of bacterial strain and subculturing it at an OD600 of 0.01 into the medium. Stock solutions of predetermined concentrations of the test compound were then made in the medium. These stock solutions were aliquoted (100 μL) into the wells of the 96-well PVC microtiter plate. Sample plates were then wrapped in GLAD Press n'Seal® followed by an incubation under stationary conditions for 24 h at 37° C. After incubation, the medium was discarded from the wells and the plates were washed thoroughly with water. Plates were then stained with 100 μL of 0.1% solution of crystal violet (CV) and then incubated at ambient temperature for 30 min. Plates were washed with water again and the remaining stain was solubilized with 200 μL of 95% ethanol. A sample of 125 μL of solubilized CV stain from each well was transferred to the corresponding wells of a polystyrene microtiter dish. Biofilm inhibition was quantitated by measuring the OD540 of each well in which a negative control lane wherein no biofilm was formed served as a background and was subtracted out.

[1] = tested on: S. aureus strain ATCC 29213; test: Biofilm inhibition, crystal violet assay; assay type: cell-based; details: for biofilm inhibition activity (in words): 29213, 200 μM; for IC50: Staphylococcus aureus, ATCC29213, S. aureus ATCC 29213
Protocol: (§3) Given the potency of our lead compounds toward inhibiting MRSA biofilms, we next explored their activity against various other S. aureus strains. […] IC50 values were determined for each compound against each of the S. aureus strains.
as §1, §2

R. salexigens [2] = details: reported by Yamada et al.; cited from earlier work
E. coli = test: Biofilm inhibition, crystal violet assay; assay type: cell-based; details: for inhibition at 200 µM / IC50: Escherichia coli; for inhibition at 200 µM: read-out: % Inhibition of biofilm formation; for IC50: concentration that inhibits 50% of biofilm formation
Protocol: as §1, §2

S. epidermidis = test: Biofilm inhibition, crystal violet assay; assay type: cell-based; details: 200 μM
Protocol: as §1, §2

[3] = tested on: red blood cell (difibrinated sheep blood); test: Red blood cell hemolysis assay; assay type: cell-based; details: up to the highest concentration tested (1.2 mM)
Protocol: This was assessed using a red blood cell hemolysis assay using difibrinated sheep blood.
Red Blood Cell Hemolysis Assay.
Hemolysis assays were performed on mechanically difibrinated sheep blood (Hemostat Labs: DSB100). 1.5 mL of blood was placed into a microcentrifuge tube and centrifuged at 10000 rpm for ten minutes. The supernatant was removed and then the cells were resuspended with 1 mL of phosphate-buffered saline (PBS). The suspension was centrifuged, the supernatant was removed and cells resuspended two more times. The final cell suspension was then diluted tenfold. Test compound solutions were made in PBS in small culture tubes and then added to aliquots of the tenfold suspension dilution. PBS alone was used as a negative control and as a zero hemolysis marker whereas a 1% Triton X sample was used as a positive control and the 100% lysis marker. Samples were then placed in an incubator at 37° C. while being shaken at 200 rpm for one hour. After one hour, the samples were transferred to microcentrifuge tubes and then centrifuged at 10000 rpm for ten minutes. The resulting supernatant was diluted by a factor of 40 in distilled water. The absorbance of the supernatant was measured with a UV spectrometer at a 540 nm wavelength.

R. salexigens [4] = test: Biofilm inhibition, crystal violet assay; assay type: cell-based, Rhodospirillum salexigens; details: 200 μM
Protocol: as §1, §2

VRE = test: Biofilm inhibition, crystal violet assay; assay type: cell-based, vancomycin-resistant Enterococcus faecium; details: 200 μM
Protocol: as §1, §2

MDRAB = test: Biofilm inhibition, crystal violet assay; assay type: cell-based, multi-drug resistant Acinetobacter baumannii; details: 200 μM
Protocol: as §1, §2

[5] = tested on: S. aureus strain ATCC 25923; test: Biofilm inhibition, crystal violet assay; assay type: cell-based; details: Staphylococcus aureus, ATCC25923; S. aureus ATCC 25923
Protocol: as §3, §1, §2

[6] = tested on: S. aureus strain ATCC 29740; test: Biofilm inhibition, crystal violet assay; assay type: cell-based; details: Staphylococcus aureus, ATCC29740; S. aureus ATCC 29740
Protocol: as §3, §1, §2

## CC(C)CCC[C@@H](C)C1CCC2[C@@H]3CC=C4C[C@@H](OC(=O)N5CCc6ccccc65)CC[C@]4(C)[C@H]3CC[C@]12C (stereo partly shown)
other
  melting point: 142 to 145 °C

## CC(C)CCC[C@@H](C)C1CCC2[C@@H]3CC=C4C[C@@H](OC(=O)NCCc5ccc(N)cc5)CC[C@]4(C)[C@H]3CC[C@]12C (stereo partly shown)
other
  melting point: 135 to 139 °C

## COC1CC(C)CCC1C(C)C (single isomer, unassigned; (-)) [(−)-menthol methyl ether, reference compound]
MRSA; 200 μM
  biofilm inhibition activity (in words): completely inactive
[1]
  biofilm inhibition activity (in words): completely inactive

## CC1CCC(C(C)C)C(O)C1 (single isomer, unassigned; (-)) [(−)-menthol, reference compound]
MRSA; 200 μM
  biofilm inhibition activity (in words): completely inactive
[1]
  biofilm inhibition activity (in words): completely inactive

## CCOC(=O)NCCc1ccccc1 [Compound 2d, ethyl N-(2-phenethyl) carbamate]
R. salexigens [2]
  antibiofilm activity reported in the literature: moderate antibiofilm activity
E. coli; 200 μM
  % Inhibition of biofilm formation: 40.8%
S. epidermidis
  % Inhibition of biofilm formation: 63.1%
[3]
  red blood cell lysis: no red blood cell lysis
MRSA; 200 μM
  % Inhibition of biofilm formation: 68.1%
R. salexigens [4]
  % Inhibition of biofilm formation: 59.7%
VRE
  % Inhibition of biofilm formation: 80.2%
MDRAB
  % Inhibition of biofilm formation: 52.0%

## CC(C)[C@@H]1CC[C@@H](C)C[C@H]1OC(=O)NCCn1nccn1 [Compound 5a, (1R,2S,5R)-2-isopropyl-5-methylcyclohexyl 2-(2H-1,2,3-triazol-2-yl)ethylcarbamate]
E. coli; 200 μM
  inhibition at 200 µM: > 80%
E. coli
  IC50: 28.3 µM

## CC(C)[C@@H]1CC[C@@H](C)C[C@H]1OC(=O)NCCc1ccc(N)cc1 [Compound 8a, (1R,2S,5R)-2-isopropyl-5-methylcyclohexyl 4-aminophenethylcarbamate]
[3]
  red blood cell lysis: no red blood cell lysis
MRSA; 200 μM
  inhibition at 200 µM: > 90%
MRSA
  IC50: 49.8 µM
[5]
  IC50: 71.9 µM
[1]
  IC50: 21.2 µM
[6]
  IC50: 24.3 µM

## CC(C)[C@@H]1CC[C@@H](C)C[C@H]1OC(=O)NCCc1ccccn1 [Compound 9a, (1R,2S,5R)-2-isopropyl-5-methylcyclohexyl 2-(pyridin-2-yl)ethylcarbamate]
E. coli; 200 μM
  inhibition at 200 µM: > 80%
E. coli
  IC50: 34.6 µM
[3]
  red blood cell lysis: no red blood cell lysis
other
  melting point: 59 to 63 °C
MRSA; 200 μM
  inhibition at 200 µM: > 90%
MRSA
  IC50: 4.87 µM
[5]
  IC50: 19.7 µM
[1]
  IC50: 124 µM
[6]
  IC50: 82.2 µM

## CC(C)[C@H]1CC[C@H](C)C[C@@H]1OC(=O)NCCc1ccccn1 [Compound 9k, (1S,2R,5S)-2-isopropyl-5-methylcyclohexyl 2-(pyridin-2-yl)ethylcarbamate]
other
  melting point: 57 to 59 °C
MRSA; 200 μM
  biofilm inhibition activity (in words): identical antibiofilm properties as their enantiomers
[1]
  biofilm inhibition activity (in words): identical antibiofilm properties as their enantiomers
